The record followed here is ChEMBL document CHEMBL1147766, “Structure-based design of novel groups for use in the P1 position of thrombin inhibitor scaffolds. Part 1: Weakly basic azoles” (Bioorg Med Chem Lett, 2006).

For data set [1], the target named is T1, Prothrombin (Homo sapiens, UniProt P00734). The data set can be described thus: Binding affinity to thrombin.
The target in the next data set is Trypsin (Homo sapiens, UniProt P07477+P07478+P35030). The data set can be described thus: Binding affinity to trypsin. Type of data set: protein assay.
Data set [2] deals with T1, Prothrombin. As to conditions: Plasma.
Description: Anticoagulant potency in human plasma
Data set [3] can be described thus: Cmax in dog administered with 5 mg/kg, po. Details: dose 5 mg/kg, route oral. Type of data set: ADME, organism-based, Canis lupus familiaris. The following applies: in vivo.
The nature of data set [4]: Cmax in dog administered with 4 mg/kg, po. Type of data set: ADME, organism-based, Canis lupus familiaris. Details: dose 4 mg/kg, route oral. The following applies: in vivo.
The nature of data set [5]: Half life in dog administered with 4 mg/kg, po. The format is ADME, organism-based, Canis lupus familiaris. The arrangement: dose 4 mg/kg, route oral. As to conditions: in vivo.

As for `Cc1ccc(NS(=O)(=O)Cc2ccccc2)c(=O)n1CC(=O)NC/C=C/c1cnc(N)s1`, the Ki (usually a dissociation constant, usually derived from enzyme kinetics or from competition with a known ligand) at Prothrombin [1] was 1.8 µM; on Trypsin, over 1000 µM.
In the same order, the values of `Cc1nc[nH]c1CNC(=O)Cn1c(C)ccc(NS(=O)(=O)Cc2ccccc2)c1=O` are 0.008 µM and 43 µM.
In the same order, the values of `Nc1ncc(/C=C/CNC(=O)[C@@H]2CCCN2C(=O)[C@H](N)C(c2ccccc2)c2ccccc2)s1` are 0.03 µM and 178 µM.
On the same counts, the results for `Cc1ccc(NS(=O)(=O)Cc2ccccc2)c(=O)n1CC(=O)NCCCc1c[nH]cn1` are 0.034 µM and 17 µM.
In the case of `N[C@@H](C(=O)N1CCC[C@H]1C(=O)NCc1c[nH]cn1)C(c1ccccc1)c1ccccc1`, the Ki on Prothrombin [1] was 0.38 µM; at Trypsin, 36 µM.
On the same counts, the results for `Nc1ncc(CCCNC(=O)[C@@H]2CCCN2C(=O)[C@H](N)C(c2ccccc2)c2ccccc2)s1` are 0.198 µM and 32 µM.
In turn, `Cc1cnc(NCCc2ccccc2)c(=O)n1CC(=O)NC[C@H]1CC[C@H](N)CC1` came in with a Ki on Prothrombin [1] of 0.0064 µM.
With `N[C@@H](C(=O)N1CCC[C@H]1C(=O)NCCc1c[nH]cn1)C(c1ccccc1)c1ccccc1`, the Ki on Prothrombin [1] came to 0.2 µM; on Trypsin, 2.3 µM.
As for `Nc1ncc(CCNC(=O)[C@@H]2CCCN2C(=O)[C@H](N)C(c2ccccc2)c2ccccc2)s1`, the Ki on Prothrombin [1] turned out to be 0.193 µM; at Trypsin it was 59 µM.
As for `Cc1[nH]cnc1C#CCNC(=O)[C@@H]1CCCN1C(=O)[C@H](N)C(c1ccccc1)c1ccccc1`, the inhibitory constant (Ki) came out at 0.006 µM on Prothrombin [1] and 7.2 µM on Trypsin.
Turning to `Cc1ccc(NS(=O)(=O)Cc2ccccc2)c(=O)n1CC(=O)NCCCc1cnc(N)s1`, the results for the Ki at Prothrombin [1] and on Trypsin were 0.45 µM and 124 µM, respectively.
For `Nc1ncc(CNC(=O)[C@@H]2CCCN2C(=O)[C@H](N)C(c2ccccc2)c2ccccc2)s1`, the Ki on Prothrombin [1] was found to be 0.35 µM; at Trypsin, 59 µM.
On Trypsin, `Cc1ccc(NS(=O)(=O)Cc2ccccc2)c(=O)n1CC(=O)NCc1cnc(N)s1` came in with a Ki of over 1000 µM.
With `Cc1ccc(NS(=O)(=O)Cc2ccccc2)c(=O)n1CC(=O)NC/C=C/c1c[nH]cn1`, the Ki on Prothrombin [1] came out at 0.143 µM; on Trypsin it was 21 µM.
For `N[C@@H](C(=O)N1CCC[C@H]1C(=O)NCCCc1c[nH]cn1)C(c1ccccc1)c1ccccc1`, the Ki amounted to 0.017 µM at Prothrombin [1] and 0.24 µM on Trypsin.
`Cc1nc[nH]c1CNC(=O)Cn1c(C)cnc(NCCc2ccccn2)c1=O` displayed a Ki at Prothrombin [1] of 0.022 µM. This lies in the double-digit nanomolar range.
On to `Cc1[nH]cnc1/C=C/CNC(=O)[C@@H]1CCCN1C(=O)[C@H](N)C(c1ccccc1)c1ccccc1`, for which, at Prothrombin [2], the 2aPTT amounted to 0.32 µM. Besides, the Ki on Prothrombin [1] turned out to be 0.001 µM; at Trypsin it was 0.1 µM. Besides, the Cmax – broadly, the highest concentration seen after dosing – in data set [3] amounted to 550 nM.
Turning to `N[C@@H](C(=O)N1CCC[C@H]1C(=O)NCC#Cc1c[nH]cn1)C(c1ccccc1)c1ccccc1`, the Ki on Prothrombin [1] was found to be 0.013 µM; on Trypsin it was 6 µM.
In the same order, the values of `N[C@@H](C(=O)N1CCC[C@H]1C(=O)NC/C=C/c1c[nH]cn1)C(c1ccccc1)c1ccccc1` are 0.002 µM and 0.14 µM.
In the same order, the values of `Cc1[nH]cnc1CNC(=O)[C@@H]1CCCN1C(=O)[C@H](N)C(c1ccccc1)c1ccccc1` are 0.065 µM and 9.6 µM.
In the same order, the values of `Cc1ccc(NS(=O)(=O)Cc2ccccc2)c(=O)n1CC(=O)NCc1c[nH]cn1` are 0.17 µM and 314 µM.
On to `Cc1nc(N)sc1CNC(=O)Cn1c(C)ccc(NS(=O)(=O)Cc2ccccc2)c1=O`, for which the results for the Ki on Prothrombin [1] and on Trypsin were 0.01 µM and 6.5 µM, respectively.
In turn, `Cc1nc[nH]c1CNC(=O)Cn1c(C)cnc(NCCc2ccccc2)c1=O` returned a Cmax in data set [4] of 1400 nM. For the same molecule, the half-life (as a rule, how long it takes for the measured level to halve) in data set [5] is 2 h. Also, at Prothrombin [1], the Ki was found to be 0.053 µM.
